A value given as a limit tells only on which side of the number the result lay.

The values below come from patent US9572828B2, “Treatment for melanoma” (The Board of Regents of the University of Texas System, priority 2013, dated 2017).

The subject of series [1] is BRAFV600E/K mutant advanced or malignant melanoma. The settings on record: cited from earlier work.
The test system of series [2] is primary melanomas from patients. Briefly: xenograft assay, digitoxin and/or GSK1120212. The class given is in vivo, NSG mice. The settings on record: 0.5 mg/kg/day each agent by oral gavage; melanomas from multiple patients, with and without BRAF mutations.
Experimental: Melanoma cells were injected subcutaneously in the right flanks of immunocompromised NSG mice. When tumors became palpable, mice were randomized to four different treatments. […] Control mice received vehicle only (200 μl 0.5% promethylcellulose, 0.2% Tween80 and 5% DMSO per day). Tumors were measured every 2-3 days with calipers.
In these experiments, metastatic melanoma cells were injected subcutaneously in the right flanks of immunocompromised NSG mice. When tumors became palpable, mice were randomized to four different treatments. […] Control mice received vehicle only (200 μl 0.5% promethylcellulose, 0.2% Tween80 and 5% DMSO per day). Tumors were measured every 2-3 days with calipers and bioluminescence imaging was performed when the diameter of the tumors in vehicle treated mice reached 2 cm.
For series [3] the following is noted: 4 hours after 0.5 mg/kg injection (FIG. 1C).
The conditions of series [4]: human, in vivo; cited from earlier work.
The conditions of series [5]: human, in vivo; cited from earlier work. The source holds these as a separate data set.

Regarding `CC(=O)Nc1cccc(-n2c(=O)n(C3CC3)c(=O)c3c(Nc4ccc(I)cc4F)n(C)c(=O)c(C)c32)c1` [Trametinib], in series [1] (MEKi class effect), the chorioretinopathy is on record as < 1% and the decreased ejection fraction was 7%. Moreover, in series [1] (Trametinib arm), the “Grade 3 hypertension” value is on record as 12% and the “Grade 3 rash” value is 7%.
For the compound `C[C@H]1O[C@@H](O[C@H]2[C@@H](O)C[C@H](O[C@H]3[C@@H](O)C[C@H](O[C@H]4CC[C@@]5(C)[C@H](CC[C@@H]6[C@@H]5CC[C@]5(C)[C@@H](C7=CC(=O)OC7)CC[C@]65O)C4)O[C@@H]3C)O[C@@H]2C)C[C@H](O)[C@@H]1O` [digitoxin], the “growth of human melanoma xenografts” value in series [2] is listed as “slowed the growth”. In addition, the “doses in the plasma of mice” value in series [3] is “fell within the therapeutic range in humans”.
For `C[C@H]1O[C@@H](O[C@H]2[C@@H](O)C[C@H](O[C@H]3[C@@H](O)C[C@H](O[C@H]4CC[C@@]5(C)[C@H](CC[C@@H]6[C@@H]5C[C@@H](O)[C@]5(C)[C@@H](C7=CC(=O)OC7)CC[C@]65O)C4)O[C@@H]3C)O[C@@H]2C)C[C@H](O)[C@@H]1O` [digoxin], the half-life result in series [4] is “about 36 hours”. For the same compound, in series [5], the “frequency of common adverse effects (loss of appetite, nausea, vomiting, diarrhea etc.)” value was ≥ 1 % of patients and the “plasma concentration at which adverse effects are rare” value was < 0.8 ng/mL.
